Biological target: T1, FLuc-C-HiBiT (Photinus pyralis, UniProt P08659)
T1 construct: firefly luciferase with C-terminal HiBiT tag, E. coli expressed
Assay: biochemical
Conditions: enzyme activity, 10 uM ATP; read-out: IC50 or SDR50 (mM) / FLuc E

T1 sequence (P08659 whole entry, looked up): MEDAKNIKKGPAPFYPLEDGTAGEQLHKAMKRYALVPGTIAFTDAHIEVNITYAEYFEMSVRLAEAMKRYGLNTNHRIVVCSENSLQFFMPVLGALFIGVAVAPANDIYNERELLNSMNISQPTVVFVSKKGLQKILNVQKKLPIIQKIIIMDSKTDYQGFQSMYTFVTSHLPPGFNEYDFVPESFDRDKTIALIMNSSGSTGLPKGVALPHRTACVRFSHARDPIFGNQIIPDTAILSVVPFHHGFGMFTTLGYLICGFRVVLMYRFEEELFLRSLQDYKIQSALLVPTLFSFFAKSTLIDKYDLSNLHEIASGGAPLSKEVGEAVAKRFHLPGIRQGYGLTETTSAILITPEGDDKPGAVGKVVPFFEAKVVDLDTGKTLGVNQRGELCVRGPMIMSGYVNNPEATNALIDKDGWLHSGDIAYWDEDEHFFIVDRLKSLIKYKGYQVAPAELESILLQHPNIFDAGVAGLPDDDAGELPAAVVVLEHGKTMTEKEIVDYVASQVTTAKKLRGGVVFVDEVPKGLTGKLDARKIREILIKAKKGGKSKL

Structure (SMILES)	IC50
Cc1ccc(-c2noc(-c3nc(C(C)C)no3)n2)cc1 [NCGC00450102-01]	11.1 µM
CCn1ccnc1C1CCN(c2nc3ccccc3s2)CC1 [NCGC00442461-01]	9.89 µM
O=C(Nc1ccccc1C(=O)O)c1ccccc1 [NCGC00245456-03]	12.4 µM
O=C(NCCn1cccc1-c1nc(-c2ccc3c(c2)OCO3)no1)c1ccc(Cl)cc1 [NCGC00445582-01]	9.89 µM
CCc1ccc(CNC(=O)C2CCCN(c3nn4cc(-c5ccc(F)cc5)nc4s3)C2)cc1 (stereo not drawn) [NCGC00123722-01]	> 30 µM
Cc1ccc(-n2nc(C)c([C@H]3C=C[C@@H](OC(=O)Nc4cccc(C(F)(F)F)c4)C3)c2C)cc1Cl [NCGC00401611-01]	> 30 µM
CC(C)c1noc(-c2nc(-c3ccc4c(c3)OCO4)no2)n1 [NCGC00450061-01]	7.85 µM
CCc1ccc(Nc2nc(-c3ccccc3F)no2)cc1 [NCGC00422308-01]	6.24 µM
CCOc1ccc(-c2cc3c(=O)n(CCNC(=O)c4ccncc4)ccn3n2)cc1 [NCGC00456950-01]	3.51 µM
Cc1c(-c2ccccc2F)[nH]c2ccc(CNC(=O)CC3CCC(=O)N3)cc12 (stereo not drawn) [NCGC00425710-01]	9.89 µM
O=C(NCC(F)(F)F)C1CCCN1c1nc2ncccc2o1 (stereo not drawn) [NCGC00480238-01]	> 30 µM
C[C@@H]1CN(c2nc(-c3ccccc3)no2)CC[C@@]1(O)C1CCC1 [NCGC00439928-01]	1.76 µM
CSc1ccc(/C=C/c2nc3ccccc3n2[S+](=O)([O-])c2ccc(F)c(C)c2)cc1 [NCGC00139450-01]	0.7 µM
Cc1ccc2c(c1)sc1nc(-c3cc4ccccc4oc3=O)cn12 [NCGC00098323-01]	0.248 µM
Cc1ccc(NC(=O)c2ccc3c(c2)N(C)C2CCCN2C3=O)cc1F (stereo not drawn) [NCGC00452116-01]	8.81 µM
COc1ccc(CNC(=O)Nc2cccc(-c3ccc(N4CCCCC4)nn3)c2)cc1 [NCGC00427646-01]	0.495 µM
CCOC(=O)C1CCCN(c2ncnc3c2cnn3-c2ccc(C)c(Cl)c2)C1 (stereo not drawn) [NCGC00139179-01]	> 30 µM
COc1ccc(-c2noc([C@@H]3C[C@H](NCc4ccccn4)CN3C)n2)cc1 [NCGC00395774-01]	20.2 µM
O=C(Nc1ccccc1)c1nc2c(o1)CCN(Cc1ccc(O)cc1)CC2 [NCGC00413411-01]	5.08 µM
CCOCC1(C)COc2ccc(C(=O)Nc3ccccc3)cc2N1 (stereo not drawn) [NCGC00416079-01]	18 µM
O=C1CCc2cc(NC(=O)c3n[nH]c4ccccc34)ccc2N1 [NCGC00425473-01]	3.13 µM

Structure (SMILES)	IC50
Cc1ccc(Nc2c(-c3ccc(N(C)C)cc3)nc3[nH]cnn23)cc1 [NCGC00105887-01]	12.4 µM
COc1ccc(-c2noc([C@@H]3Cc4[nH]cnc4CN3C(=O)Nc3ccc(Cl)cc3)n2)cc1 [NCGC00401634-01]	> 30 µM
COc1ccccc1CNC(=O)c1ccc2nc(N3CCCCC3)sc2c1 [NCGC00113612-01]	> 30 µM
CC(CCc1ccc(O)cc1)N1CCOc2c(O)cc(-c3nc4ccccc4s3)cc2C1 (stereo not drawn) [NCGC00240078-01]	> 30 µM
Cc1ccc(-n2ncc3c(N4CCC(C)CC4)ncnc32)cc1C [NCGC00139121-01]	4.95 µM
COCCNc1oc(-c2ccc(OC)cc2)nc1C#N [NCGC00101301-01]	12.4 µM
CC[n+]1c(/C=C/N(C)c2ccccc2)n(-c2ccccc2)c2ccc(-c3nc4ccccc4s3)cc21 [NCGC00165744-02]	17.6 µM
COc1ccc(-c2cc3c(=O)n(CCNC(=O)c4cccc(N(C)C)c4)ccn3n2)cc1 [NCGC00456929-01]	3.51 µM
CCNC(=O)C1C(c2cccc(NC(=O)c3ccc(C)cc3)c2)OC(=O)N1Cc1ccc(F)cc1 (stereo not drawn) [NCGC00473984-01]	1.76 µM
COc1ccc(-n2nc(C)c([C@@H]3C=C[C@@H](NC(=O)NCc4ccccc4)C3)c2C)cc1 [NCGC00421411-01]	6.4 µM
COc1ccc(-c2cc(=O)c3cc(OCC(=O)OC(C)C)ccc3o2)cc1 [NCGC00100608-01]	3.94 µM
Cc1ccc2oc(-c3ccc(C)c(NC(=O)/C=C/c4ccc(Cl)cc4)c3)nc2c1 [NCGC00103154-01]	11.1 µM
COc1ccc(NC(=O)Nc2cccc(-c3ccc(N4CCOCC4)nn3)c2)cc1F [NCGC00427622-01]	0.881 µM
CCN1c2cc(C(=O)Nc3ccc4c(c3)OCCO4)ccc2C(=O)N2CCCC21 (stereo not drawn) [NCGC00452150-01]	11.1 µM
CCN(CC)CCOc1ccc(-c2nc3cc(Cl)ccc3s2)cc1 [NCGC00160568-01]	25.4 µM
CNC(=O)c1cccc(-c2cnc(NC(=O)c3cn(C)cn3)c3c2CCO3)c1 [NCGC00412729-01]	20.2 µM
Cc1cc(C)cc(Nc2nc(-c3ccccc3F)no2)c1 [NCGC00422314-01]	6.24 µM
Cc1ccc(-c2cc3c(=O)n(CCNC(=O)c4ccoc4)ccn3n2)cc1C [NCGC00457019-01]	9.89 µM
CN1c2cc(C(=O)Nc3ccccc3)ccc2C(=O)N2CCCCC21 (stereo not drawn) [NCGC00452396-01]	12.4 µM
Cc1ccc2nc(-c3ccc(NC(=O)Cc4ccccc4)cc3)sc2c1 [NCGC00098885-01]	9.89 µM
Cc1c(N[S+](C)(=O)[O-])cccc1-c1nc2ccccc2s1 [NCGC00118990-01]	9.89 µM

Structure (SMILES)	IC50
CCNC(=O)C1C(c2cccc(NC(=O)c3ccc(OC)cc3)c2)OC(=O)N1Cc1ccc(C)cc1 (stereo not drawn) [NCGC00474207-01]	3.94 µM
COc1ccc(-c2noc(Nc3ccc(OC)c(OC)c3)n2)cc1 [NCGC00422322-01]	11.1 µM
O=C(c1ccccn1)N1CCC(Oc2ccc(-c3noc(-c4ccccc4)n3)cc2)C1 (stereo not drawn) [NCGC00441001-01]	11.1 µM
CC(=O)c1cccc(Nc2nn(-c3ccc(OC(F)(F)F)cc3)nc2C(C)=O)c1 [NCGC00116630-01]	4.42 µM
Cc1ccc(-c2cc3c(=O)n(CCNC(=O)c4cccc(C#N)c4)ccn3n2)c(C)c1 [NCGC00456970-01]	3.13 µM
O=C(Nc1cccc(F)c1)Nc1cccc(-c2ccc(N3CCCCC3)nn2)c1 [NCGC00427644-01]	0.989 µM
CCCCOc1nc(N)c2[nH]c(=O)n(CCCN(CCCN3CCOCC3)Cc3cccc(CC(=O)OC)c3)c2n1 [NCGC00886690-01]	> 30 µM
COc1ccc(NC(=O)/C(C#N)=C/c2ccc(C)o2)cc1 [NCGC00099040-01]	6.24 µM
Oc1cc(-c2nc3ccccc3s2)cc2c1OCCN(Cc1cccn1-c1ncccn1)C2 [NCGC00239686-01]	> 30 µM
CN1CCN(c2ccc(-c3cccc(N)c3)nn2)CC1 [NCGC00432705-01]	6.24 µM
COc1ccccc1-c1nc(-c2ccc(C(=O)O)cc2)no1 [NCGC00168102-02]	1.97 µM
CC(C)(C)CN1CCNc2cc(Nc3cccnc3)ncc2C1 [NCGC00411255-01]	6.4 µM
Cc1ccc(/C=C/c2nc3ccccc3[nH]2)cc1 [NCGC00139422-01]	0.0442 µM
CC(=O)N[C@@H]1C=C[C@@H](c2c(C)nn(-c3ccc(C(F)(F)F)cc3)c2C)C1 [NCGC00400353-01]	16.1 µM
COc1ccc(NC(=O)Nc2ccc(C)n(CC(=O)N3CCCC(C)C3)c2=O)cc1 (stereo not drawn) [NCGC00430838-01]	7.85 µM
O=C(CCCc1ccccc1)N1CCC2(CC1)CC(O)CCO2 (stereo not drawn) [NCGC00452928-01]	12.4 µM
Fc1ccc(-c2cn3cc(Cc4ccccc4)sc3n2)cc1 [NCGC00102110-01]	0.279 µM
CCOC(=O)N1CCc2c(sc(NCc3ccc(OCC)cc3)c2C(=O)Nc2ccc(OC)cc2OC)C1 [NCGC00140805-01]	3.94 µM
CC(C)Cc1noc(-c2ccc(N3CCC(O)CC3)nc2)n1 [NCGC00434953-01]	5.56 µM
COc1ccc(C(=O)NCCn2cccc2-c2nc(-c3ccccc3)no2)cc1 [NCGC00445570-01]	2.79 µM
O=C(O)c1cccc(-c2noc(-c3cc([N+](=O)[O-])cc([N+](=O)[O-])c3)n2)c1 [NCGC00250195-01]	3.13 µM

Structure (SMILES)	IC50
Cc1ccc(-c2cc3c(=O)n(CCNC(=O)c4nn(C)c5ccccc45)ccn3n2)c(C)c1 [NCGC00456971-01]	1.57 µM
CC(=O)NC1(C)CN(Cc2ccc(-c3ccccc3OCc3ccccc3)s2)C1 [NCGC00410438-01]	22.7 µM
COc1ccc(-c2cc3c(=O)n(CCNC(=O)c4c(F)cccc4F)ccn3n2)cc1 [NCGC00456908-01]	4.95 µM
COc1cccc(-c2ccc(-c3nc(C4CCOC4)no3)o2)c1 (stereo not drawn) [NCGC00448436-01]	9.89 µM
Cc1nnc(SCc2ccccc2)c2cc3sccc3n12 [NCGC00122277-01]	14 µM
Cc1cc(NCCc2cnccn2)nc(-c2ccccc2O)n1 [NCGC00445970-01]	> 30 µM
Cc1nccn1CCN(C)c1ccc(-c2nc(COc3ccccc3)no2)cn1 [NCGC00428976-01]	9.89 µM
N#Cc1c(NC(=O)c2cccc3ccccc23)sc2c1CCCC2 [NCGC00242227-03]	> 30 µM
COc1cccc(-c2ncc3c(n2)OCCN(c2ccccc2)C3=O)c1 [NCGC00413522-01]	1.8 µM
COc1ccc(-c2ncc3c(n2)OCCN(Cc2ccccc2)C3=O)cc1 [NCGC00413617-01]	18 µM
CCOc1ccc(NC(=O)CCc2c(C)nc3cc(-c4ccc(Cl)cc4)nn3c2C)cc1 [NCGC00110024-01]	2.79 µM
Oc1cccc(-c2cc3c(cn2)CN(Cc2cccnc2)CCN3)c1 [NCGC00411023-01]	22.7 µM
CCc1ccc(NC(=O)c2cc3ccccn3n2)cc1 [NCGC00127901-01]	1.76 µM
O=C(Nc1onc2c1CCCC2)c1ccccc1 [NCGC00115884-01]	11.1 µM
COc1cccc(-c2noc(Nc3ccc4c(c3)OCCO4)n2)c1 [NCGC00422372-01]	1.57 µM
COc1ccc(-c2cc3c(=O)n(CCNC(=O)Cc4cccs4)ccn3n2)cc1 [NCGC00456924-01]	9.89 µM
O=C(c1n[nH]cc1Cl)N1CCOC(Cc2cccc(C(F)(F)F)c2)C1 (stereo not drawn) [NCGC00431816-01]	> 30 µM
CCN(CC)C(=O)N1CCOC(c2ccc3cc(OC)ccc3c2)C1 (stereo not drawn) [NCGC00431059-01]	5.56 µM
Cc1ccc2oc(=O)c(-c3nc(-c4cccs4)no3)cc2c1 [NCGC00123382-01]	> 30 µM
C[C@H](C(=O)NCCN1CCOCC1)C1CC[C@@]2(C)Cc3sc(-c4ccccc4)nc3[C@@H](C)[C@@H]2[C@H]1O (stereo partly drawn) [NCGC00421022-01]	0.989 µM
CC1CCc2nc3ncn(Cc4ccc(Cl)cc4)c(=O)c3cc2C1 (stereo not drawn) [NCGC00132725-01]	> 30 µM
